From ChEMBL document CHEMBL1649100, “N-3 Hydroxylation of Pyrimidine-2,4-diones Yields Dual Inhibitors of HIV Reverse Transcriptase and Integrase” (ACS Med Chem Lett, 2011)

Columns and labels:
[1] = Inhibition of HIV integrase 3' processing activity expressed in Escherichia coli; design: species or system Human immunodeficiency virus
[2] = Inhibition of HIV integrase strand transfer activity expressed in Escherichia coli; design: species or system Human immunodeficiency virus
[3] = biological target: Human immunodeficiency virus type 1 reverse transcriptase (Human immunodeficiency virus 1, UniProt Q72547); assay: Inhibition of HIV1 reverse transcriptase
[4] = test system: Human immunodeficiency virus 1; assay: Antiviral activity against HIV1 3B infected in human CEM-SS cells assessed as inhibition of viral replication after 6 days by MTS assay; assay type: functional, organism-based; conditions: Human immunodeficiency virus 1, 3B, 144 h
[5] = Cytotoxicity in human CEM-SS cells after 6 days by MTS assay; assay type: cell-based
[6] = Therapeutic index, ratio of CC50 for human CEM-SS cells to EC50 for HIV1 3B; assay type: cell-based; conditions: read-out: Ratio CC50/EC50

Row | Compound | IC50 [1] | IC50 [2] | IC50 [3] | EC50 [4] | CC50 at 144 h [5] | selectivity ratio [6]
1 | CC(C)c1c(Cc2ccccc2)n(COCc2ccccc2)c(=O)n(O)c1=O | > 333 µM | 21 µM | 6.2 µM | 0.008 µM | > 20 µM | > 2500
2 | CC(C)c1c(Cc2ccc(F)cc2)n(COCc2ccccc2)c(=O)n(O)c1=O | > 333 µM | 7.3 µM | > 100 µM | > 10 µM | – | –
3 | CC(C)c1c(Cc2ccccc2)n(COCc2ccc(F)cc2)c(=O)n(O)c1=O | > 333 µM | 3.5 µM | 0.17 µM | 0.024 µM | > 20 µM | > 830
4 | CCc1c(Cc2ccccc2)n(COCc2ccccc2)c(=O)n(O)c1=O | > 333 µM | 8.2 µM | 9.4 µM | 1.1 µM | > 20 µM | > 18
5 | CC(C)c1c(Cc2ccccc2)n(COCc2ccccc2)c(=O)n(N)c1=O | > 333 µM | > 333 µM | 1.5 µM | > 10 µM | – | –

Second part, led by results:

Row | IC50 [1] | IC50 [2] | IC50 [3] | Compound | EC50 [4] | CC50 at 144 h [5] | selectivity ratio [6]
6 | > 333 µM | 5.5 µM | > 100 µM | CC(C)c1c(Cc2ccc(F)cc2)n(COCc2ccc(F)cc2)c(=O)n(O)c1=O | > 10 µM | – | –
7 | > 333 µM | 85 µM | 13 µM | CCOCn1c(Cc2ccccc2)c(C(C)C)c(=O)n(O)c1=O | 4.3 µM | > 20 µM | > 4.7
8 | > 333 µM | 105 µM | > 100 µM | CCOCn1c(Cc2ccc(F)cc2)c(C(C)C)c(=O)n(O)c1=O | > 10 µM | – | –
9 | > 333 µM | > 333 µM | 0.04 µM | CC(C)c1c(Cc2ccccc2)n(COCc2ccccc2)c(=O)[nH]c1=O | 0.013 µM | > 20 µM | > 1500
